Source: patent US10905691B2, “Use of triazolo(4,5-d)pyrimidine derivatives for prevention and treatment of bacterial infection” (Universite de Liege, priority 2016, dated 2021)
Like-named read-outs stand apart in the source and are kept apart here.

Experiments:
[1] = test system: Staphylococcus epidermidis (ATCC 35984, also known as RP62A); test: MBC and MDK99.9 determination; type: cell-based
Experimental: The Minimal Inhibitory Concentration (MIC) and the Minimal Bactericidal Concentration (MBC) of Triafluocyl were determined in Staphylococcus epidermidis (ATCC 35984, also known as RP62A) according to EUCAST (European Committee on Antimicrobial Susceptibility Testing) recommendations.
We have also determined the MBC, i.e. the concentration at which the liquid culture, when spread on TSA plates, will not produce any colony.
The Minimum Duration for killing 99.9% S. epidermidis (MDK99.9) by Triafluocyl, a tolerance metric according to the EUCAST, was 2 hours.
For MBC determination a 1:100 inoculum of an O/N culture (prepared like before) was incubated in aerobic conditions for 2 h in bacteria-specific medium. The culture was then challenged with Fluometacyl at the MIC concentration or higher. Bacterial growth was measured after different time intervals by counting the colony-forming units (CFU) after plating appropriate culture dilutions on bacteria-specific medium agar plates.

[2] = test system: Escherichia coli (ATCC 8739); test: MIC determination with or without polymyxin B nonapeptide (PMBN); type: cell-based; details: for MIC: Escherichia coli, ATCC8739, in presence of 40 μg/ml PMBN; for inhibition of E. coli growth: taken alone, concentrations up to 15 μg/ml
Experimental: Determination of Minimal Inhibitory Concentration (MIC) and Minimal Bactericidal Concentration (MBC) of Triafluocyl (Cayman Chemical, Item No. 15425) in presence of polymyxin B nonapeptide (PMBN) (Sigma-Aldrich Merk, Item No. P2076) against Escherichia coli (ATCC 8739). […] A single colony grown on a Luria-Bertani Agar (LB) plate was resuspended and cultured in LB medium overnight (O/N) in aerobic conditions (37° C. with 220 rpm shaking), next day a 1:50 inoculum in Mueller-Hinton broth (MHB) is incubated in aerobic conditions for 1 h30 (OD=0.08-0.1) and an inoculum corresponding to 3×10^6 colony forming unit (CFU)/ml, is incubated in presence or absence of different concentrations of Triafluocyl in 1% DMSO with or without 40 μg/ml Polymyxin B nonapeptide (PMBN) for 18 hr in aerobic conditions (37° C. with 220 rpm shaking). Growth of Escherichia coli in 7 conditions depicted in FIG. 11 is evaluated by reading the OD of each culture at 600 nm (OD600) in a spectrophotometer (Victor 3-Perkin Elmer). Determination of Minimal Inhibitory Concentration (MIC) and Minimal Bactericidal Concentration (MBC) of Fluometacyl in presence of polymyxin B nonapeptide (PMBN) (Sigma-Aldrich Merk, Item No. P2076) against Escherichia coli (ATCC 8739). The Minimal Inhibitory Concentration (MIC) represents the concentration, in a liquid culture, at which there is no visible growth of bacteria (no pellet or cloudiness), i.e. ΔOD at 600 nm equal to zero wherein ΔOD is the difference between the resulting optical density (OD) with the molecule together with PMBN, and the optical density (OD) of the blank (blank is the medium alone). A single colony grown on a Luria-Bertani Agar (LB) plate is resuspended and cultured in LB medium overnight (O/N) in aerobic conditions (37° C. with 220 rpm shaking), next day a 1:50 inoculum in Mueller-Hinton broth (MHB) is incubated in aerobic conditions for 1 h30 (OD=0.08-0.1) and an inoculum corresponding to 3×10^6 colony forming unit (CFU)/ml is incubated in presence or absence of different concentrations of Fluometacyl in 1% DMSO (vehicle) with or without 40 μg/ml Polymyxin B nonapeptide (PMBN) for 18 hr in aerobic conditions (37° C. with 220 rpm shaking). Growth of bacteria in the 7 individual cultures (FIG. 12A) is evaluated by reading the OD of each culture at 600 nm (OD600) in a spectrophotometer (Victor 3-Perkin Elmer).

[3] = test system: S. aureus (ATCC 25904) biofilm; test: Biofilm formation on polystyrene (crystal violet); type: cell-based, Staphylococcus aureus; details: 20 hours
Experimental: (§1) S. aureus (ATCC 25904) was grown overnight in TSB medium, before being diluted 100 fold in fresh TSB, and incubated aerobically at 37° C. until bacteria culture reached an OD600 of 0.6 (corresponding to approximately 1-3×10^8 CFU/ml). Bacteria cultures were then diluted to 1×10^4 CFU/ml in fresh TSB. 800 μl aliquots of diluted bacteria suspensions were distributed in each well of a 24-well plate. Bacteria were allowed to adhere for 4 hours under static conditions at 37° C. After removing media, wells were rinsed 2 times with PBS to eliminate planktonic bacteria and re-filled with TSB supplemented with 0.5% glucose
Triafluocyl or DMSO as vehicle was then added at desired concentration and plates were incubated at 37° C. for 20 hours. After incubation, wells were washed and stained with 0.5% (w/v) crystal violet for 30 minutes, washed again and the dye was solubilized by adding 20% acetic acid (v/v in water) before reading absorbance at 595 nm.
S. aureus biofilms were formed on polystyrene surface in the presence of increasing concentrations of Triafluocyl or DMSO as vehicle. In FIG. 2, Biofilm mass is presented as percentage of values obtained in the presence of DMSO (*P<0.05; **P<0.01; ***P<0.001, Triafluocyl versus DMSO, n=4).
as §1, with “Staphyloccocus” for “S.”, “or Staphyloccocus epidermidis (ATCC 35984) were” for “was”, “TSB. Aliquots of” for “TSB.”, “μl” for “μl aliquots of”, “removing the” for “removing”, “glucose containing Fluometacyl at desired concentration or DMSO alone (Ctrl). […] The dye was solubilized by adding 20% acetic acid (v/v in water) before reading absorbance at 595 nm. […]” for “glucose”

| SMILES | MBC ([1]; Staphylococcus epidermidis, ATCC35984, S. epidermidis, cut-off 99.9% reduction in CFU, read-out: MBC) [µM] | MIC [2] [µg/mL] | inhibition of E. coli growth [2] | S. aureus biofilm formation ([3]; 38 μM, FIG. 10A) | MBC ([1]; S. epidermidis) [µg/mL] | MDK 99.9 Time (h) needed to kill 99.9% of the started inoculum ([1]; S. epidermidis) [h] | MBC ([1]; Staphylococcus epidermidis, ATCC35984, S. epidermidis, read-out: MBC) [µg/mL] | S. aureus biofilm formation ([3]; 10 μg/ml, polystyrene surface) | S. aureus biofilm formation ([3]; all concentrations tested, versus DMSO) |
| --- | --- | --- | --- | --- | --- | --- | --- | --- | --- |
| CCCSc1nc(N[C@@H]2C[C@H]2c2ccc(F)c(F)c2)c2nnn([C@@H]3C[C@H](O)[C@@H](O)[C@H]3O)c2n1 [Fluometacyl, (1S,2R,3S,4R)-4-[7-[[(1R,2S)-2-(3,4-Difluorophenyl)cyclopropyl]amino]-5-(propylthio)-3H-1,2,3-triazolo[4,5-d]pyrimidin-3-yl]-1,2,3-cyclopentanetriol] | 38 | 5 | unable to inhibit E. coli growth | could not form any biofilm |  |  |  |  |  |
| CCCSc1nc(N[C@@H]2C[C@H]2c2ccc(F)c(F)c2)c2nnn([C@@H]3C[C@H](OCCO)[C@@H](O)[C@H]3O)c2n1 [Triafluocyl, (1S,2S,3R,5S)-3-[7-[(1R,2S)-2-(3,4-difluorophenyl)cyclopropylamino]-5-(propylthio)-3H-[1,2,3]-triazolo[4,5-d]pyrimidin-3-yl]-5-(2-hydroxyethoxy)-1,2-cyclopentanediol] |  | 5 | unable to inhibit E. coli growth |  | 20 | 2 | 17 ± 3 | no biofilm could form | significantly reduces |
